Blank lines part the entries; values can stand above or below the compound they belong to.
How the values were obtained:
[1] = system: weeds; assay: Pre-emergence test (herbicidal activity); type: in vivo; settings: soil sprayed 24 hours after sowing, rated after three weeks
[2] = system: crop plants, such as corn and sugar beet; assay: Pre-emergence test (crop plant tolerance); type: in vivo; settings: some crop plants, e.g. corn and sugar beet, rated after three weeks
[3] = system: weeds; assay: Post-emergence test (herbicidal activity); type: in vivo; settings: test plants of 5-15 cm sprayed, rated after three weeks
[4] = system: crop plants, such as wheat; assay: Post-emergence test (crop plant tolerance); type: in vivo; settings: some crop plants, e.g. wheat, rated after three weeks
[5] = log P determination by HPLC (EEC directive 79/831 Annex V.A8, reverse-phase C 18); settings: for chromatographic logP: reverse-phase C18 HPLC column, pH 2.3; for logP: HPLC, reverse-phase C 18, 43° C., acidic range: 0.1% aqueous phosphoric acid/acetonitrile gradient (marked a))

- melting point: 124.5 °C
SMILES: CCOC(=O)C1CCN(c2cc(-n3c(=O)cc(C(F)(F)F)[nH]c3=O)c(F)cc2C#N)CC1

- chromatographic logP [5]: 3.23
SMILES: CCOC(=O)C1CCN(c2cc(-n3c(=O)cc(C(F)(F)F)n(C)c3=O)c(F)cc2C#N)CC1 [Example 2, 3-[4-cyano-5-(4-ethoxycarbonylpiperidin-1-yl)-2-fluorophenyl]-1-methyl-6-trifluoromethyl-1H-pyrimidine-2,4-dione]
- activity against weeds (degree of damage vs untreated control) [1]: very strong activity
- tolerance by crop plants [2]: tolerated well
- activity against weeds (degree of damage vs untreated control) [3]: very strong activity
- tolerance by crop plants [4]: tolerated well

- chromatographic logP [5]: 2.25
SMILES: Cn1c(C(F)(F)F)cc(=O)n(-c2cc(N3C(=O)CN(C4CC4)C3=O)c(C#N)cc2F)c1=O [Example 3, 3-[4-cyano-2-fluoro-5-(1-cyclopropyl-2,4-dioxoimidazolidin-3-yl)phenyl]-1-methyl-6-trifluoromethyl-1H-pyrimidine-2,4-dione]
- activity against weeds (degree of damage vs untreated control) [1]: very strong activity
- tolerance by crop plants [2]: tolerated well
- activity against weeds (degree of damage vs untreated control) [3]: very strong activity
- tolerance by crop plants [4]: tolerated well

SMILES: Cc1ccc(C)n1-c1cc(-n2c(=O)cc(C(F)(F)F)n(C)c2=O)c(F)cc1C#N [Example 4]
- tolerance by crop plants [2]: tolerated well
- tolerance by crop plants [4]: tolerated well

SMILES: Cn1c(C(F)(F)F)cc(=O)n(-c2cc(-n3cccc3)c(C#N)cc2F)c1=O [Example 5]
- tolerance by crop plants [2]: tolerated well
- tolerance by crop plants [4]: tolerated well

SMILES: Cn1c(C(F)(F)F)cc(=O)n(-c2cc(-n3ccc(C=O)c3)c(C#N)cc2F)c1=O [Example 6]
- tolerance by crop plants [2]: tolerated well
- tolerance by crop plants [4]: tolerated well
- logP [5]: m.p.: 174 °C logP = 2.25^a)

SMILES: CCOC(=O)CCN1CC(=O)N(c2cc(-n3c(=O)cc(C(F)(F)F)n(C)c3=O)c(F)cc2C#N)C1=O [Example 8]
- logP [5]: logP = 2.48^a)

SMILES: Cn1c(C(F)(F)F)cc(=O)n(-c2cc(N3C(=O)C4CCCCN4C3=O)c(C#N)cc2F)c1=O (stereo not drawn) [Example 9]
- tolerance by crop plants [2]: tolerated well
- tolerance by crop plants [4]: tolerated well
- logP [5]: logP = 2.42^a)

SMILES: CC1OC(=O)N(c2cc(-n3c(=O)cc(C(F)(F)F)n(C)c3=O)c(F)cc2C#N)C1=O (stereo not drawn) [Example 10]
- tolerance by crop plants [4]: tolerated well
- logP [5]: logP = 2.49^a)

SMILES: Cn1c(C(F)(F)F)cc(=O)n(-c2cc(N3C(=O)CSC3=O)c(C#N)cc2F)c1=O [Example 11]
- activity against weeds (degree of damage vs untreated control) [3]: very strong activity
- tolerance by crop plants [4]: tolerated well
- logP [5]: logP = 2.36^a)

SMILES: Cn1c(C(F)(F)F)cc(=O)n(-c2cc(N3C(=O)COC3=O)c(C#N)cc2F)c1=O [Example 12]
- tolerance by crop plants [4]: tolerated well

SMILES: CCOC(=O)C1CCN(c2cc(-n3c(=O)cc(C(F)(F)F)n(N)c3=O)c(F)cc2C#N)CC1 [Example 16]
- activity against weeds (degree of damage vs untreated control) [1]: very strong activity
- tolerance by crop plants [2]: tolerated well
- activity against weeds (degree of damage vs untreated control) [3]: very strong activity
- tolerance by crop plants [4]: tolerated well
- logP [5]: logP = 2.89^a)

SMILES: N#Cc1cc(F)c(-n2c(=O)cc(C(F)(F)F)[nH]c2=O)cc1N1CCC(O)CC1 [Example 18]
- logP [5]: logP = 1.62^a)

SMILES: Cn1c(C(F)(F)F)cc(=O)n(-c2cc(N3CCC(O)CC3)c(C#N)cc2F)c1=O [Example 20]
- activity against weeds (degree of damage vs untreated control) [1]: very strong activity
- tolerance by crop plants [2]: tolerated well
- activity against weeds (degree of damage vs untreated control) [3]: very strong activity
- tolerance by crop plants [4]: tolerated well
- logP [5]: logP = 3.97^a)

SMILES: CCOC(=O)C1CCCN(c2cc(-n3c(=O)cc(C(F)(F)F)[nH]c3=O)c(F)cc2C#N)C1 (stereo not drawn) [Example 24]
- tolerance by crop plants [2]: tolerated well
- tolerance by crop plants [4]: tolerated well
- logP [5]: logP = 3.31^a)

SMILES: COC(=O)C1CCN(c2cc(-n3c(=O)cc(C(F)(F)F)n(C)c3=O)c(F)cc2C#N)CC1 [Example 28]
- activity against weeds (degree of damage vs untreated control) [1]: very strong activity
- tolerance by crop plants [2]: tolerated well
- activity against weeds (degree of damage vs untreated control) [3]: very strong activity
- tolerance by crop plants [4]: tolerated well
- logP [5]: logP = 2.88^a)

SMILES: Cn1c(C(F)(F)F)cc(=O)n(-c2cc(N3CCC(O)C3)c(C#N)cc2F)c1=O (stereo not drawn) [Example 31]
- activity against weeds (degree of damage vs untreated control) [1]: very strong activity
- tolerance by crop plants [2]: tolerated well
- activity against weeds (degree of damage vs untreated control) [3]: very strong activity
- tolerance by crop plants [4]: tolerated well
- logP [5]: logP = 2.02^a)

SMILES: Cn1c(C(F)(F)F)cc(=O)n(-c2cc(N3CCC4(CC3)OCCO4)c(C#N)cc2F)c1=O [Example 34]
- logP [5]: logP = 2.67^a)

SMILES: N#Cc1cc(F)c(-n2c(=O)cc(C(F)(F)F)n(N)c2=O)cc1N1CCC2(CC1)OCCO2 [Example 35]
- logP [5]: logP = 2.37^a)

SMILES: Cn1c(C(F)(F)F)cc(=O)n(-c2cc(N3CCC(C(F)(F)F)CC3)c(C#N)cc2F)c1=O [Example 37]
- logP [5]: logP = 3.52^a)

SMILES: N#Cc1cc(F)c(-n2c(=O)cc(C(F)(F)F)[nH]c2=O)cc1N1CCC(C#N)CC1 [Example 38]
- logP [5]: logP = 2.08^a)

SMILES: Cn1c(C(F)(F)F)cc(=O)n(-c2cc(N3CCC4(CC3)OCCCO4)c(C#N)cc2F)c1=O [Example 40]
- logP [5]: logP = 2.69^a)

SMILES: N#Cc1cc(F)c(-n2c(=O)cc(C(F)(F)F)n(N)c2=O)cc1N1CCC2(CC1)OCCCO2 [Example 41]
- logP [5]: logP = 2.40^a)

SMILES: N#Cc1cc(F)c(-n2c(=O)cc(C(F)(F)F)[nH]c2=O)cc1N1CCC(C(F)(F)F)CC1 [Example 42]
- logP [5]: logP = 2.96^a)

SMILES: Cn1c(C(F)(F)F)nn(-c2cc(N3CCC4(CC3)OCCO4)c(C#N)cc2F)c1=O [Example 50]
- logP [5]: logP = 2.81^a)

SMILES: CCOC(=O)C1CCN(c2cc(N3C(=O)C4=C(CCCC4)C3=O)c(F)cc2C#N)CC1 [Example 59]
- logP [5]: logP = 3.77^a)

SMILES: CCOC(=O)C1CCN(c2cc(N3C(=O)C(C)=C(C)C3=O)c(F)cc2C#N)CC1 [Example 64]
- logP [5]: logP = 3.37^a)

SMILES: CCOC(=O)C1CCCN(c2cc(-n3c(=O)cc(C(F)(F)F)n(C)c3=O)c(F)cc2Cl)C1 (stereo not drawn) [Example 68]
- logP [5]: logP = 3.87^a)

SMILES: CCOC(=O)C1CCCCN1c1cc(-n2c(=O)cc(C(F)(F)F)n(C)c2=O)c(F)cc1Cl (stereo not drawn) [Example 69]
- logP [5]: logP = 4.07^a)

SMILES: CCOC(=O)C1CCCN(c2cc(-n3c(=O)cc(C(F)(F)F)n(C)c3=O)c(F)cc2Br)C1 (stereo not drawn) [Example 73]
- logP [5]: logP = 3.99^a)

SMILES: CCOC(=O)C1CCCCN1c1cc(-n2c(=O)cc(C(F)(F)F)n(C)c2=O)c(F)cc1Br (stereo not drawn) [Example 74]
- logP [5]: logP = 4.18^a)

SMILES: CCOC(=O)C1CCCN1c1cc(-n2c(=O)cc(C(F)(F)F)n(C)c2=O)c(F)cc1Br (stereo not drawn) [Example 82]
- logP [5]: logP = 3.61^a)

SMILES: CCOC(=O)C1CCCN1c1cc(-n2c(=O)cc(C(F)(F)F)n(C)c2=O)c(F)cc1Cl (stereo not drawn) [Example 83]
- logP [5]: logP = 3.49^a)

SMILES: CCOC(=O)C1CCCN1c1cc(-n2c(=O)cc(C(F)(F)F)n(C)c2=O)c(F)cc1C#N (stereo not drawn) [Example 84]
- logP [5]: logP = 3.01^a)

— patent US20060148649A1, “Substituted n-aryl nitrogen heterocycles” (priority 2003, published 2006)
